Drawing on ChEMBL document CHEMBL1140565, “Dipeptidyl alpha-fluorovinyl Michael acceptors: synthesis and activity against cysteine proteases” (Bioorg Med Chem Lett, 2007), this text covers inhibition for 3 compounds.

For assay [1], the system named is Leishmania mexicana. Nature of the assay: Inhibition of Leishmania mexicana cysteine protease CBP2.8deltaCTE at 20 ug/mL.
Assay [2] concerns Leishmania mexicana. Nature of the assay: Inhibition of Leishmania mexicana cysteine protease CBP2.8deltaCTE at 2 ug/mL.

As for `O=C(N[C@H](/C=C/S(=O)(=O)c1ccccc1)Cc1ccccc1)[C@H](Cc1ccccc1)NC(=O)N1CCOCC1`, the figures for the inhibition with Leishmania mexicana [1] and in the assay on Leishmania mexicana [2] were 97% and 71.3%, respectively.
Take `CC(C)(C)OC(=O)N[C@@H](Cc1ccccc1)/C(SCCc1ccccc1)=C(/F)S(=O)(=O)c1ccccc1`: the results for the inhibition in the assay with Leishmania mexicana [1] and with Leishmania mexicana [2] were 15.1% and 0%, respectively.
Turning to `CC(C)(C)OC(=O)N[C@@H](Cc1ccccc1)/C(SCCc1ccccc1)=C(\F)S(=O)(=O)c1ccccc1`, the inhibition in the assay with Leishmania mexicana [1] was found to be 38.7%; in the assay on Leishmania mexicana [2], 1.1%.

In general, inhibition refers to the share of the control response that was lost under treatment. Read a low inhibition as a weak effect.
